Drawing on article PMC6443996, “1‐Hydroxy‐xanthine derivatives inhibit the human Caf1 nuclease and Caf1‐containing nuclease complexes via Mg^2+‐dependent binding” (FEBS Open Bio, 2019), this text covers IC50 for two molecules.

What all share (assay): chemiluminescence-based AMP detection (AMP-Glo) deadenylase assay
Common to all, as to format: biochemical

Assay [1] concerns the target T1, human Caf1/CNOT7 (Homo sapiens, UniProt Q9UIV1).
T1 construct: isolated recombinant wild-type Caf1 subunit, expressed and purified from Escherichia coli BL21(DE3)
The settings on record: read-out: IC50 (μM) vs Caf1 ^b. From the text:
chemiluminescence-based AMP detection (AMP-Glo) deadenylase assay on human Caf1/CNOT7

For assay [2], the target named is T2, human pentameric central module (BTG2-Caf1/CNOT7-Ccr4/CNOT6L-CNOT1-CNOT9) of Ccr4-Not (Homo sapiens, UniProt Q9UIV1).
T2 construct: pentamer reconstituted from separately purified nuclease module and CNOT1 (MIF4G and DUF3819 domains, 1093-1595)-CNOT9 (ARM domain, 33-283) dimer; E. coli; with CCR4-NOT transcription complex subunit 6-like; Protein BTG2; CCR4-NOT transcription complex subunit 1; CCR4-NOT transcription complex subunit 9
As to conditions: read-out: IC50 (μM) vs pentameric Caf1-complex ^d.

Assay [3] addresses T3, trimeric human nuclease module (BTG2-Caf1/CNOT7-Ccr4/CNOT6L) (Homo sapiens, UniProt Q9UIV1).
T3 construct: trimeric complex co-expressed from pQE80L-BTG2 and pACYC-Duet1-Strep-CNOT6L-CNOT7 in E. coli; with CCR4-NOT transcription complex subunit 6-like; Protein BTG2
As to conditions: read-out: IC50 (μM) vs trimeric Caf1-complex ^c.

T2 sequence (Q9UIV1 whole entry, other chains not shown, the tested form may be a part): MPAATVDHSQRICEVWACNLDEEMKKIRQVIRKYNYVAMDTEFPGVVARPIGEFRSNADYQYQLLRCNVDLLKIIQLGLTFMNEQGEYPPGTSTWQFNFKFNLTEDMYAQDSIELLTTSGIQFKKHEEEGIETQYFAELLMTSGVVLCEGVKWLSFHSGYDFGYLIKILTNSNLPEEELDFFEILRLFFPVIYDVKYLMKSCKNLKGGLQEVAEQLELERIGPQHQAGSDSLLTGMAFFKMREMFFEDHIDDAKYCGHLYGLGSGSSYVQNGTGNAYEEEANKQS
T2 sequence (P78543 whole entry partner, other chains not shown, the tested form may be a part): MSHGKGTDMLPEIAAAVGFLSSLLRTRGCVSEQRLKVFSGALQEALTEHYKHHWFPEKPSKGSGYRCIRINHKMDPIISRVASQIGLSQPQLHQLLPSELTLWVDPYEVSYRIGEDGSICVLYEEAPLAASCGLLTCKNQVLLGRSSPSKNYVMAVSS
T2 sequence (A5YKK6 1093-1595 partner, other chains not shown): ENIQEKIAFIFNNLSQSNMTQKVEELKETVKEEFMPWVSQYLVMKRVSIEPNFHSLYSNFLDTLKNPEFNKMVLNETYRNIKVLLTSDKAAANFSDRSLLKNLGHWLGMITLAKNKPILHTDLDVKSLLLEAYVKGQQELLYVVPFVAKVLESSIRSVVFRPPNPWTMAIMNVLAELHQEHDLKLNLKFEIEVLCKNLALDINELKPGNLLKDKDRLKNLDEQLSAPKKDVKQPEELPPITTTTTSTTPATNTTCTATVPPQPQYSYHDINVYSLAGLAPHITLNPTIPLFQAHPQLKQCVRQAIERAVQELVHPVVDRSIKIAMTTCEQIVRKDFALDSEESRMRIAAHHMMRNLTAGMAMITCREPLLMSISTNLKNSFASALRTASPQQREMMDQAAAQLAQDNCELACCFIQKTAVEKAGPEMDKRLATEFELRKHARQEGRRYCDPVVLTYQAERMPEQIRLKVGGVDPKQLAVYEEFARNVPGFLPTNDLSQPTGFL
T2 sequence (Q92600 33-283 partner, other chains not shown): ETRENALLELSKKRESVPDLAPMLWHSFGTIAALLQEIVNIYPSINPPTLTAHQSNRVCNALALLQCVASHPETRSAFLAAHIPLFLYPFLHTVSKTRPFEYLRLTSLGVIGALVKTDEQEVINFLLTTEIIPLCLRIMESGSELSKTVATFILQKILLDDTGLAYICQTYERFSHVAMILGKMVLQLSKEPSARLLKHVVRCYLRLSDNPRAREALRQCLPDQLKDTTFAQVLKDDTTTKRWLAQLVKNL
T3 sequence (Q9UIV1 whole entry, other chains not shown): as the sequence (Q9UIV1 whole entry, other chains not shown, the tested form may be a part) above
T3 sequence (P78543 whole entry partner, other chains not shown): as the sequence (P78543 whole entry partner, other chains not shown, the tested form may be a part) above
T1 sequence (Q9UIV1 whole entry): as the sequence (Q9UIV1 whole entry, other chains not shown, the tested form may be a part) above

Broadly, the IC50 is the midpoint of a concentration-inhibition curve. For `O=c1[nH]c2ncn(Cc3ccccc3)c2c(=O)n1O` [compound 1, 1-hydroxy-xanthine compound 1], the IC50 in assay [1] is 12.7 ± 0.9 µM; in assay [2] it was 10.8 ± 0.2 µM; in assay [3], 13.6 ± 0.6 µM.

`CN(C)CCCn1c(=O)n(O)c(=O)c2c1ncn2CCc1ccccc1` [compound 5, 1-hydroxy-xanthine compound 5]: the IC50 in assay [1] was determined as 0.79 ± 0.09 µM; in assay [2], 0.98 ± 0.07 µM; in assay [3] it was 1 ± 0.2 µM.
